{"source": "paper PMC13210772", "about": "“Dual FLT3/MAPK14 Proteolysis-Targeting Chimera (PROTAC) Induces Potent Acute Myeloid Leukemia Cell Death” (Pharmaceuticals, 2026)", "assay_in_all_cases": "NanoBRET CELLinib128", "assay_type_in_all_cases": "binding", "key": {"AURKA": {"target": "T1, AURKA (Homo sapiens, UniProt O14965)", "T1 construct": "Full-length kinase ORF (Promega, Madison, WI, USA) cloned in frame with a NanoLuc-vector was transfected into HEK293T cells; host or cells: HEK293T", "settings": "100% no effect, 0% complete tracer displacement, read-out: Tracer bound", "experimental": "(§1) To get an impression about the binding strength of the PROTAC MA191 and the reference inhibitor MA68 to other kinases besides FLT3-ITD the binding on a kinase panel of further 128 representative protein kinases at 1 μM concentration was tested using the NanoBRET^TM cellular target engagement assay (CELLinib128 assay, CELLinib GmbH, Frankfurt, Germany). […] In none of the 128 kinases MA191 was able to displace the tracer (inhibitor) used by more than 50%, Table S1, Supplementary Information).\n(§2) The CELLinib128 assay was performed by CELLinib GmbH, Frankfurt (Germany) as described previously. In brief: Full-length kinase ORF (Promega, Madison, WI, USA) cloned in frame with a NanoLuc-vector was transfected into HEK293T cells in Opti-MEM without phenol red (Life Technologies, Carlsbad, CA, USA) at a density of 2 × 10^5 cells/mL using FuGENE HD (Promega, E2312) and proteins were allowed to express for 20 h. For CDKs, where indicated below, an excess of an activator without an NLuc-fusion was cotransfected. […] The system was allowed to equilibrate at 37 °C for 2 h and 5% CO2 prior to BRET measurements. For PKCs, a chemical activator PMA was added in a final concentration of 1 µM was added together with test compounds and tracers (Promega, V1171). To measure BRET, NanoBRET^TM NanoGlo substrate + extracellular NanoLuc inhibitor (Promega, N2160) were added as per the manufacturer’s protocol, and filtered luminescence was measured (450 nm BP filter (donor) and 610 nm LP filter (acceptor)). For the 1-shot test compounds, data were normalized to the tracer control and the background control or control compound plateau and an average and SD were calculated. […] For the control compounds competitive displacement data were normalized to the tracer Ctrl and the background Ctrl and then plotted and fitted using GraphPad Prism 10 software using a normalized 3-parameter curve fit with the following equation: Y = 100/(1 + 10^X−LogIC50)."}, "AURKB": {"target": "T2, AURKB (Homo sapiens, UniProt Q96GD4)", "T2 construct": "Full-length kinase ORF (Promega, Madison, WI, USA) cloned in frame with a NanoLuc-vector was transfected into HEK293T cells; host or cells: HEK293T", "settings": "100% no effect, 0% complete tracer displacement, read-out: Tracer bound", "experimental": "as §1, §2"}, "AURKC": {"target": "T3, AURKC (Homo sapiens, UniProt Q9UQB9)", "T3 construct": "Full-length kinase ORF (Promega, Madison, WI, USA) cloned in frame with a NanoLuc-vector was transfected into HEK293T cells; host or cells: HEK293T", "T3 sequence (Q9UQB9 whole entry)": "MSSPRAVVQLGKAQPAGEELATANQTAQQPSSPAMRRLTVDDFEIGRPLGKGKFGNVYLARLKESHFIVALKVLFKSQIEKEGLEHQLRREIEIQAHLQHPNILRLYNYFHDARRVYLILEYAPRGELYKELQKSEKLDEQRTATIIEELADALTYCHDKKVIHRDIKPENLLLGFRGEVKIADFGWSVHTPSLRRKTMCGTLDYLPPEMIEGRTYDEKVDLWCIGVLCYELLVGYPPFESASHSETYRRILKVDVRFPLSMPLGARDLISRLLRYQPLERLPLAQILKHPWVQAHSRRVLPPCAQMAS", "settings": "100% no effect, 0% complete tracer displacement, read-out: Tracer bound", "experimental": "as §1, §2"}, "CAMK2A": {"target": "T4, CAMK2A (Homo sapiens, UniProt Q9UQM7)", "T4 construct": "Full-length kinase ORF (Promega, Madison, WI, USA) cloned in frame with a NanoLuc-vector was transfected into HEK293T cells; host or cells: HEK293T", "T4 sequence (Q9UQM7 whole entry)": "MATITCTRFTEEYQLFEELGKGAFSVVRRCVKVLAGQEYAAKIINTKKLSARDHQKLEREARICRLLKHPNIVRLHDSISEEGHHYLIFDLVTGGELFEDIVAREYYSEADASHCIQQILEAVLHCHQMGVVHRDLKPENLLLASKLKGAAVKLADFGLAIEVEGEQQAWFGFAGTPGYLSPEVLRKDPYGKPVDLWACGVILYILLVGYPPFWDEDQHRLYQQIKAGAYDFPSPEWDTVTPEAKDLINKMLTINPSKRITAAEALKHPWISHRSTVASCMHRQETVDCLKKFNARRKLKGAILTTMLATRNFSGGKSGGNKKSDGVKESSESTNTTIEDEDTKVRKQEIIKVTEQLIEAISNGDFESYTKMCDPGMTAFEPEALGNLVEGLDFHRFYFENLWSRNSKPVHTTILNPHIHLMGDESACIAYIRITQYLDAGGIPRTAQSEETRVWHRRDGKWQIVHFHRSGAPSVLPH", "settings": "100% no effect, 0% complete tracer displacement, read-out: Tracer bound", "experimental": "as §1, §2"}, "CDK18-CCNY": {"target": "T5, CDK18-CCNY (Homo sapiens, UniProt Q07002)", "T5 construct": "Full-length kinase ORF (Promega, Madison, WI, USA) cloned in frame with a NanoLuc-vector was transfected into HEK293T cells; host or cells: HEK293T", "T5 sequence (Q07002 whole entry)": "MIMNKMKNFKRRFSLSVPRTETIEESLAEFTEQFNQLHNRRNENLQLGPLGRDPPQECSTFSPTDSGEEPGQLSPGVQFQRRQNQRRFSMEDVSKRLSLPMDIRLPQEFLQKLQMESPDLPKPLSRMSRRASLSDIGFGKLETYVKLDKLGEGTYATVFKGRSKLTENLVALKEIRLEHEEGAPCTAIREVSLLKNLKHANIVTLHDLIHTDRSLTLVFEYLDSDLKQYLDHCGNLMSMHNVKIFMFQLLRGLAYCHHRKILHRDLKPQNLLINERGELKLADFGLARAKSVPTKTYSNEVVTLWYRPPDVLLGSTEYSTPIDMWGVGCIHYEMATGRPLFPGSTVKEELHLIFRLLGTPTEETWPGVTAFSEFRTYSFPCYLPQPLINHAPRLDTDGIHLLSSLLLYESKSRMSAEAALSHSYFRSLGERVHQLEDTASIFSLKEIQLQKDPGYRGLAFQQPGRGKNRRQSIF", "T5 sequence (Q8ND76 whole entry partner)": "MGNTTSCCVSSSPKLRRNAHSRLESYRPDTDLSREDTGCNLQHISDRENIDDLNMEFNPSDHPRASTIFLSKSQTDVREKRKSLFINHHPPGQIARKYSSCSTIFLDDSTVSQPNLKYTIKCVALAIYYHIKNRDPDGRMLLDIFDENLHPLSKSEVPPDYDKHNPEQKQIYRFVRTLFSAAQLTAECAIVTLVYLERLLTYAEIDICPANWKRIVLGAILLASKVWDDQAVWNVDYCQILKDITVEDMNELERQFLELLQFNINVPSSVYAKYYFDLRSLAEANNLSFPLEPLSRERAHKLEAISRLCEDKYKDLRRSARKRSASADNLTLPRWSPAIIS", "settings": "100% no effect, 0% complete tracer displacement, read-out: Tracer bound", "experimental": "as §1, §2"}, "CDK20-CCNH": {"target": "T6, CDK20-CCNH (Homo sapiens, UniProt Q8IZL9)", "T6 construct": "Full-length kinase ORF (Promega, Madison, WI, USA) cloned in frame with a NanoLuc-vector was transfected into HEK293T cells; host or cells: HEK293T", "settings": "100% no effect, 0% complete tracer displacement, read-out: Tracer bound", "experimental": "as §1, §2"}, "CDK3-CCNE1": {"target": "T7, CDK3-CCNE1 (Homo sapiens, UniProt Q00526)", "T7 construct": "Full-length kinase ORF (Promega, Madison, WI, USA) cloned in frame with a NanoLuc-vector was transfected into HEK293T cells; host or cells: HEK293T", "T7 sequence (Q00526 whole entry)": "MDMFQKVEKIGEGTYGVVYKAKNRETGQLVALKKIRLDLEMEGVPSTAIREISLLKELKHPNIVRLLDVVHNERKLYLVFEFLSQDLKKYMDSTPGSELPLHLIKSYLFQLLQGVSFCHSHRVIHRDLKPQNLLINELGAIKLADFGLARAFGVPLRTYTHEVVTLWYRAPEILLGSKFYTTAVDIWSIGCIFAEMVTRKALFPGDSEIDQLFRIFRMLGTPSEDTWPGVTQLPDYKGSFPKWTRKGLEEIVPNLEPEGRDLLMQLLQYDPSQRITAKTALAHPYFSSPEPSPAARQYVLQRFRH", "T7 sequence (P24864 whole entry partner)": "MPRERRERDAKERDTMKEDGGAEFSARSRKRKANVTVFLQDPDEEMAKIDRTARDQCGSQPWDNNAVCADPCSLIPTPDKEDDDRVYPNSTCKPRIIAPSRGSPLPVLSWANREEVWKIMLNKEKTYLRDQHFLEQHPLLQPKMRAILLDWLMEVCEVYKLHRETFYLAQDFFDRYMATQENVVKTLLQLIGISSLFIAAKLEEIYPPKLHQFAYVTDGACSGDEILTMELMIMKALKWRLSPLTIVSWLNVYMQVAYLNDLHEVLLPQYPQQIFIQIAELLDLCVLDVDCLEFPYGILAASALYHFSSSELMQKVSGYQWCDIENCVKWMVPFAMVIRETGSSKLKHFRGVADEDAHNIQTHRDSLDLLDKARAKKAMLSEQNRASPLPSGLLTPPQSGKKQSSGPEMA", "settings": "1 µM; 100% no effect, 0% complete tracer displacement", "experimental": "as §1, §2"}, "CDK4-CCND3": {"target": "T8, CDK4-CCND3 (Homo sapiens, UniProt P11802)", "T8 construct": "Full-length kinase ORF (Promega, Madison, WI, USA) cloned in frame with a NanoLuc-vector was transfected into HEK293T cells; host or cells: HEK293T", "settings": "100% no effect, 0% complete tracer displacement, read-out: Tracer bound", "experimental": "as §1, §2"}, "CDK5-CDK5R2": {"target": "T9, CDK5-CDK5R2 (Homo sapiens, UniProt Q00535)", "T9 construct": "Full-length kinase ORF (Promega, Madison, WI, USA) cloned in frame with a NanoLuc-vector was transfected into HEK293T cells; host or cells: HEK293T", "settings": "100% no effect, 0% complete tracer displacement, read-out: Tracer bound", "experimental": "as §1, §2"}, "ERN2": {"target": "T10, ERN2 (Homo sapiens, UniProt Q76MJ5)", "T10 construct": "Full-length kinase ORF (Promega, Madison, WI, USA) cloned in frame with a NanoLuc-vector was transfected into HEK293T cells; host or cells: HEK293T", "settings": "100% no effect, 0% complete tracer displacement, read-out: Tracer bound", "experimental": "as §1, §2"}, "HUNK": {"target": "T11, HUNK (Homo sapiens, UniProt P57058)", "T11 construct": "Full-length kinase ORF (Promega, Madison, WI, USA) cloned in frame with a NanoLuc-vector was transfected into HEK293T cells; host or cells: HEK293T", "T11 sequence (P57058 whole entry)": "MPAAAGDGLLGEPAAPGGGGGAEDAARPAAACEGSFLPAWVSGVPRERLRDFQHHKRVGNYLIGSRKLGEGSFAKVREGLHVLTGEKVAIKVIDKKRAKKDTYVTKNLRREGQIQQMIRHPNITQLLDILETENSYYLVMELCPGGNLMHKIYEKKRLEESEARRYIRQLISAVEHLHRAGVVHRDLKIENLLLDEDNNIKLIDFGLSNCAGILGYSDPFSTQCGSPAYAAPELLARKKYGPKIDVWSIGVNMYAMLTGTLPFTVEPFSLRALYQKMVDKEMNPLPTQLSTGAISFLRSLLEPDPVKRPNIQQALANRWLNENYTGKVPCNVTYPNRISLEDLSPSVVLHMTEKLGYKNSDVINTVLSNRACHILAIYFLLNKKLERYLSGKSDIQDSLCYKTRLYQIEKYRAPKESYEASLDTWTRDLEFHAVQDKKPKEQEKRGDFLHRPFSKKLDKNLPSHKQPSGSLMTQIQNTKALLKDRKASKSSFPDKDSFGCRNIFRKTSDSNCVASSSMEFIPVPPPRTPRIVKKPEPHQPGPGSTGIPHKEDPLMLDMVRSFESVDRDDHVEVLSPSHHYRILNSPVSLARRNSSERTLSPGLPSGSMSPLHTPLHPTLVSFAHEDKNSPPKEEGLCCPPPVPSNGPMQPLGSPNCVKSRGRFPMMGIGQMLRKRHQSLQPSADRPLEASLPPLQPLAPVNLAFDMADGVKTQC", "settings": "100% no effect, 0% complete tracer displacement, read-out: Tracer bound", "experimental": "as §1, §2"}, "IRAK3": {"target": "T12, IRAK3 (Homo sapiens, UniProt Q9Y616)", "T12 construct": "Full-length kinase ORF (Promega, Madison, WI, USA) cloned in frame with a NanoLuc-vector was transfected into HEK293T cells; host or cells: HEK293T", "settings": "100% no effect, 0% complete tracer displacement, read-out: Tracer bound", "experimental": "as §1, §2"}, "MAP3K11": {"target": "T13, MAP3K11 (Homo sapiens, UniProt Q16584)", "T13 construct": "Full-length kinase ORF (Promega, Madison, WI, USA) cloned in frame with a NanoLuc-vector was transfected into HEK293T cells; host or cells: HEK293T", "T13 sequence (Q16584 whole entry)": "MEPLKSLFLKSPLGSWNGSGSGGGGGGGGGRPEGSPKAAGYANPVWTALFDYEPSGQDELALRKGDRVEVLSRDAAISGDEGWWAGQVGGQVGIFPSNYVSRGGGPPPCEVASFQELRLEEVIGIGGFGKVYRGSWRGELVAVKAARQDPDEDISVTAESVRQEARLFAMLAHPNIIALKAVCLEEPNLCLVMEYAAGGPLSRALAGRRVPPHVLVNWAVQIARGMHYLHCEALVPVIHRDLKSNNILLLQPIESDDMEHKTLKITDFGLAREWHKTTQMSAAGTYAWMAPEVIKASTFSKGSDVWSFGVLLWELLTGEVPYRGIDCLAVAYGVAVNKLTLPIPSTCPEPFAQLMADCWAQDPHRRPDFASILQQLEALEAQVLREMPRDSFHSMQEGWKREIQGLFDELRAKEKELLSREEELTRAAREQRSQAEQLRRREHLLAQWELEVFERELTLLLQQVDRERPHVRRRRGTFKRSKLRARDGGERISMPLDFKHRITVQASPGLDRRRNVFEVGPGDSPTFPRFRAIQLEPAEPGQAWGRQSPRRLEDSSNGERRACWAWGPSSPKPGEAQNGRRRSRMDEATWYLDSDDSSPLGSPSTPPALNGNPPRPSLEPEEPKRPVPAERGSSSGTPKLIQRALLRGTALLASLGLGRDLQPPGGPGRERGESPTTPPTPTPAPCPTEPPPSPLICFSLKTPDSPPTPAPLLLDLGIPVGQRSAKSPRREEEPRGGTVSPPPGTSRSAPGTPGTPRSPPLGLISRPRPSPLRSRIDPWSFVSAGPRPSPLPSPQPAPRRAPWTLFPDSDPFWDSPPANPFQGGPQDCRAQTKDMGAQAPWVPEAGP", "settings": "1 µM; 100% no effect, 0% complete tracer displacement", "experimental": "as §1, §2"}, "MAP4K1": {"target": "T14, MAP4K1 (Homo sapiens, UniProt Q92918)", "T14 construct": "Full-length kinase ORF (Promega, Madison, WI, USA) cloned in frame with a NanoLuc-vector was transfected into HEK293T cells; host or cells: HEK293T", "T14 sequence (Q92918 whole entry)": "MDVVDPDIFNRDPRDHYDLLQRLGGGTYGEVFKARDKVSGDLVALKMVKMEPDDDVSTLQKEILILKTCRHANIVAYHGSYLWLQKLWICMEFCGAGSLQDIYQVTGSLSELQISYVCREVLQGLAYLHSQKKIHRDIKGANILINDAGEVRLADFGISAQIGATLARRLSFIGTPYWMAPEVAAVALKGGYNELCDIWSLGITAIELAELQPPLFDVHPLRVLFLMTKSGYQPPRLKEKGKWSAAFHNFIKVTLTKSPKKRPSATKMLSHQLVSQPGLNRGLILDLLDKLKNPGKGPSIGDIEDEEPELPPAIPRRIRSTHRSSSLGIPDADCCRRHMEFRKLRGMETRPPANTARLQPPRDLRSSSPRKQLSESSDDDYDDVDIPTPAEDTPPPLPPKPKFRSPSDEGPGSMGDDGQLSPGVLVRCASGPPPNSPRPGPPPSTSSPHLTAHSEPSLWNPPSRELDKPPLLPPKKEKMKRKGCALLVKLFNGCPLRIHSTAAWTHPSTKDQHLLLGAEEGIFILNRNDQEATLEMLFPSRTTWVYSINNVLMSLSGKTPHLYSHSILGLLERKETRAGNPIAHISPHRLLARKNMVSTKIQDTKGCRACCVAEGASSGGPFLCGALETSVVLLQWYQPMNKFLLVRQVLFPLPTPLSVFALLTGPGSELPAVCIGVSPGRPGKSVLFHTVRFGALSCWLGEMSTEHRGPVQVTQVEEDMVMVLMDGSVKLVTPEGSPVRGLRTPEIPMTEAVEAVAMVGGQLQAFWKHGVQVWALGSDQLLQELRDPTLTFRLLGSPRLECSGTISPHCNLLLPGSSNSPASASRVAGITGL", "settings": "100% no effect, 0% complete tracer displacement, read-out: Tracer bound", "experimental": "as §1, §2"}, "MAP4K5": {"target": "T15, MAP4K5 (Homo sapiens, UniProt Q9Y4K4)", "T15 construct": "Full-length kinase ORF (Promega, Madison, WI, USA) cloned in frame with a NanoLuc-vector was transfected into HEK293T cells; host or cells: HEK293T", "settings": "100% no effect, 0% complete tracer displacement, read-out: Tracer bound", "experimental": "as §1, §2"}}, "data": [{"compound": "Cc1ncsc1-c1ccc([C@H](C)NC(=O)[C@@H]2C[C@@H](O)CN2C(=O)[C@@H](NC(=O)[C@H]2CC[C@H](C(=O)N3CCN(CCNC(=O)c4cc(Oc5ccc(NC(=O)Nc6cc(C(C)(C)C)on6)cc5)ccn4)CC3)CC2)C(C)(C)C)cc1", "note": "[MA191, 4-(4-(3-(5-(tert-Butyl)isoxazol-3-yl)ureido)phenoxy)-N-(2-(4-(trans-4-(((S)-1-((2S,4R)-4-hydroxy-2-(((S)-1-(4-(4-methylthiazol-5-yl)phenyl)ethyl)carbamoyl)pyrrolidin-1-yl)-3,3-dimethyl-1-oxobutan-2-yl)carbamoyl)cyclohexanecarbonyl)piperazin-1-yl)ethyl)picolinamide]", "values": [{"measurement": "remaining activity at 1 µM", "setting": "AURKA", "value": 120, "unit": "%"}, {"measurement": "remaining activity at 1 µM", "setting": "AURKB", "value": 109, "unit": "%"}, {"measurement": "remaining activity at 1 µM", "setting": "AURKC", "value": 110, "unit": "%"}, {"measurement": "remaining activity at 1 µM", "setting": "CAMK2A", "value": 102, "unit": "%"}, {"measurement": "remaining activity at 1 µM", "setting": "CDK18-CCNY", "value": 95.9, "unit": "%"}, {"measurement": "remaining activity at 1 µM", "setting": "CDK20-CCNH", "value": 108, "unit": "%"}, {"measurement": "Tracer bound", "setting": "CDK3-CCNE1", "value": 117.0, "unit": "%"}, {"measurement": "remaining activity at 1 µM", "setting": "CDK4-CCND3", "value": 105, "unit": "%"}, {"measurement": "remaining activity at 1 µM", "setting": "CDK5-CDK5R2", "value": 104, "unit": "%"}, {"measurement": "remaining activity at 1 µM", "setting": "ERN2", "value": 116, "unit": "%"}, {"measurement": "remaining activity at 1 µM", "setting": "HUNK", "value": 103, "unit": "%"}, {"measurement": "remaining activity at 1 µM", "setting": "IRAK3", "value": 115, "unit": "%"}, {"measurement": "Tracer bound", "setting": "MAP3K11", "value": 108.2, "unit": "%"}, {"measurement": "remaining activity at 1 µM", "setting": "MAP4K1", "value": 105, "unit": "%"}, {"measurement": "remaining activity at 1 µM", "setting": "MAP4K5", "value": 94, "unit": "%"}]}]}
